Results on five molecules are retold here after ChEMBL document CHEMBL1921748, “Renin inhibitors for the treatment of hypertension: design and optimization of a novel series of spirocyclic piperidines” (Bioorg Med Chem Lett, 2011).

The structures appear in SMILES notation.

Data set [1] is described as follows: Oral bioavailability in Sprague-Dawley rat at 3 mg/kg. The format is ADME, organism-based. As to conditions: in vivo.
For another data set, the system named is Rattus norvegicus. As to the kind of experiment: Volume of distribution at steady state in Sprague-Dawley rat at 0.3 mg/kg, po. Set-up: dose 0.3 mg/kg, route oral. As to conditions: in vivo. Format: ADME, organism-based.
The nature of data set [2]: Apparent permeability of the compound. The format is ADME. As to conditions: not told.
Data set [3] is described as follows: Oral bioavailability in Sprague-Dawley rat at 30 mg/kg. The conditions noted are these: in vivo. The format is ADME, organism-based.
Data set [4] is described as follows: Half life in Sprague-Dawley rat at 0.3 mg/kg, po. Format: ADME, organism-based. Set-up: dose 0.3 mg/kg, route oral. As to conditions: in vivo.
The nature of data set [5]: Oral bioavailability in Sprague-Dawley rat at 0.3 mg/kg. The format is ADME, organism-based. The conditions noted are these: in vivo.
A short description of data set [6]: Clearance in Sprague-Dawley rat at 0.3 mg/kg, po. Format: ADME, organism-based. Set-up: dose 0.3 mg/kg, route oral. The conditions noted are these: in vivo.
A short description of data set [7]: Metabolic stability in rat liver microsomes assessed as compound remaining at 1 uM after 30 mins in presence of NADPH. Format: ADME, Microsome. As to conditions: read-out: Stability. In general terms: Liver microsomes are vesicles of endoplasmic reticulum, rich in cytochrome P450 enzymes.
Data set [8] in a line: Metabolic stability in Sprague-Dawley rat hepatocytes assessed as compound remaining at 10 uM after 2 hrs. Format: ADME, cell-based, Hepatocyte. As to conditions: read-out: Stability.
Data set [9] is described as follows: Metabolic stability in human liver microsomes assessed as compound remaining at 1 uM after 30 mins in presence of NADPH. Format: ADME, Microsome. As to conditions: read-out: Stability.
The next data set is described as follows: in vitro. As to conditions: human, liver microsomes.
Data set [10] in a line: Metabolic stability in rhesus monkey liver microsomes assessed as compound remaining at 1 uM after 30 mins in presence of NADPH. Format: ADME, Macaca mulatta, Microsome. The conditions noted are these: read-out: Stability.
Data set [11] is described as follows: Metabolic stability in dog liver microsomes assessed as compound remaining at 1 uM after 30 mins in presence of NADPH. As to conditions: read-out: Stability. The format is ADME, Canis lupus familiaris, Microsome.
Data set [12] can be described thus: Clearance in rhesus monkey at 3 mg/kg, po and 1 mg/kg, iv. Format: ADME, organism-based, Macaca mulatta. As to conditions: in vivo.
A short description of data set [13]: Clearance in Beagle dog at 3 mg/kg, po and 1 mg/kg, iv. Format: ADME, organism-based, Canis lupus familiaris. The conditions noted are these: in vivo.
Data set [14] is described as follows: AUC in rhesus monkey at 3 mg/kg, po. The format is ADME, organism-based, Macaca mulatta. The conditions noted are these: plasma. Set-up: dose 3 mg/kg, route oral.
Data set [15] is described as follows: Half life in rhesus monkey at 3 mg/kg, po and 1 mg/kg, iv. The format is ADME, organism-based, Macaca mulatta. As to conditions: in vivo.
Data set [16] can be described thus: Volume of distribution at steady state in Beagle dog at 3 mg/kg, po and 1 mg/kg, iv. Format: ADME, organism-based, Canis lupus familiaris. As to conditions: in vivo, read-out: Vdss.
The nature of data set [17]: AUC in Beagle dog at 3 mg/kg, po. Format: ADME, organism-based, Canis lupus familiaris. Set-up: dose 3 mg/kg, route oral. As to conditions: plasma.
A short description of data set [18]: Half life in Beagle dog at 3 mg/kg, po and 1 mg/kg, iv. Format: ADME, organism-based, Canis lupus familiaris. As to conditions: in vivo.
Data set [19] in a line: Volume of distribution at steady state in Sprague-Dawley rat at 3 mg/kg, po and 0.5 mg/kg, iv. The format is ADME, organism-based. As to conditions: in vivo, read-out: Vdss.
Data set [20] is described as follows: Oral bioavailability in Beagle dog at 3 mg/kg. Format: ADME, organism-based, Canis lupus familiaris. The conditions noted are these: in vivo.
A short description of data set [21]: Half life in Sprague-Dawley rat at 3 mg/kg, po and 0.5 mg/kg, iv. The format is ADME, organism-based. The conditions noted are these: in vivo.
Data set [22] can be described thus: Volume of distribution at steady state in rhesus monkey at 3 mg/kg, po and 1 mg/kg, iv. The format is ADME, organism-based, Macaca mulatta. The conditions noted are these: in vivo, read-out: Vdss.
Data set [23] is described as follows: Oral bioavailability in rhesus monkey at 3 mg/kg. The format is ADME, organism-based, Macaca mulatta. As to conditions: in vivo.
A short description of data set [24]: Clearance in Sprague-Dawley rat at 3 mg/kg, po and 0.5 mg/kg, iv. The conditions noted are these: in vivo. The format is ADME, organism-based.
Data set [25] can be described thus: AUC in Sprague-Dawley rat at 3 mg/kg, po. The format is ADME, organism-based. Set-up: dose 3 mg/kg, route oral. As to conditions: plasma.

For the molecule `COCCCc1cc(CN(C(=O)[C@H]2CNCC[C@]2(O)c2ccc(F)c(F)c2)C2CC2)cc(OCCOC)c1`, the bioavailability in data set [1] amounted to 29%; in [3] it was 18%; in data set [5], 17%. In addition, in the data set on Rattus norvegicus, the Vdss stood at 5 L/kg. Besides, the apparent permeability coefficient (Papp) in data set [2] is 21.5 ×10⁻⁶ cm/s. In data set [4], this molecule gave a half-life of 90 min. This molecule also registered an apparent clearance (CL/F) in data set [6] of 36 mL/min/kg.
For the molecule `Cc1cccc(CN(C(=O)[C@H]2CNCC[C@@]23OCc2cc(F)c(F)cc23)C2CC2)c1C`, the values for the remaining at 0.5 h, 1 µM in [7] and in data set [9] were 0% and 1%, respectively. For the same molecule, the remaining at 2 h, 10 µM in [8] is 8%.
In the case of `O=C([C@H]1CNCC[C@@]12OCc1cc(F)c(F)cc12)N(Cc1cccc(C(F)(F)F)c1Cl)C1CC1`, the remaining at 1 h, 10 µM in the data set “in vitro” was 50%.
For `COCCCc1cc(CCCN2CCOCC2)c(Cl)c(CN(C(=O)[C@H]2CNCC[C@@]23OCc2cc(F)c(F)cc23)C2CC2)c1`, the remaining at 0.5 h, 1 µM in data set [7] was determined as 53%; in [10], 10%; in [11] it was 43%; in [9] it was 51%.
As to `COCCCc1cc(CCCN2CCOCC2)c(Cl)c(CN(C(=O)[C@H]2CNCC[C@@]23OCc2cc(F)c(F)cc23)C2CC2)c1.Cl.Cl.Cl`, the clearance amounted to 66 mL/min/kg in data set [12], 73 mL/min/kg in data set [13] and 47 mL/min/kg in data set [24]. For the same molecule, the AUC in data set [14] came out at 0.01 µM·h; in data set [17] it was 0.01 µM·h; in data set [25], 0.37 µM·h. The bioavailability in [1] amounted to 23%; in data set [20], 1%; in data set [23], 1%. The half-life in data set [15] was 300 min; in [18], 600 min; in data set [21], 318 min. The values for the Vd in data set [16], in [19] and in [22] were 73 L/kg, 24 L/kg and 45 L/kg, respectively.

In general, bioavailability refers to the share of a dose that reaches the circulation, judged against a reference dose that is usually intravenous. By Papp is commonly meant a coefficient for how fast a substance crosses the barrier. One may read the half-life as the time in which the quantity being followed falls by half. In general, CL/F refers to clearance divided by bioavailability, as obtained after extravascular dosing. The term AUC denotes the area under the concentration-time curve, a measure of exposure.
